According to patent US8791299B2, “Compounds for the inhibition of herpes viruses” (Universite Laval, priority 2009, dated 2014):
Read-outs that look alike come from different tables or passages of the source.

Tests used:
HSV-1 = experiment: Plaque reduction assay (PRA), HSV-1 in Vero cells; assay type: cell-based, herpes simplex 1; conditions: for antiviral activity by PRA: wild-type HSV-1; for in vitro antiviral activity (concluding summary, words): HSV-1; for factor by which less active than ACV (IC50): representative wild-type HSV strains, PRA
Experimental: (§1) Top leading compounds were purchased from Sigma-Aldrich or ChemBridge for in vitro testing. On the day of the assay, compounds were prepared in DMSO at a concentration of 10 mM. Stock solutions were then diluted in Eagle's minimal essential medium (MEM) to the appropriate concentrations. ACV, GCV and FOS (prepared in MEM) were used as comparators for susceptible and resistant recombinant viruses and clinical isolates.
(§2) Antiviral activity of compounds 1 to 8 was first tested at two concentrations, i.e. 1 μM and 10 μM, along with currently-available first-line drugs (ACV for HSV/VZV and GCV for CMV). Then, 50% inhibitory concentration (IC50) values were determined for the top leading compounds in comparison with ACV, GCV and FOS using a standard plaque reduction assay (PRA). Briefly, Vero cells or HFFs seeded in 24-well plates were inoculated with 40 plaque forming units (PFUs) of recombinant viruses or clinical isolates. Infected cells were incubated with serial drug concentrations for appropriate periods of time. Cells were fixed and stained. The number of plaques was counted in each well and expressed in percentage of the PFUs in no-drug control wells. Recombinant and clinical viral strains were considered resistant to a drug if their IC50 values were at least 2.5 times greater than that of the representative wild-type strains.

HSV-2 = experiment: Plaque reduction assay (PRA), HSV-2 in Vero cells; assay type: cell-based, herpes simplex 2; conditions: for antiviral activity by PRA: wild-type HSV-2; for in vitro antiviral activity (concluding summary, words): HSV-2; for factor by which less active than ACV (IC50): representative wild-type HSV strains, PRA
Experimental: as §1, §2

VZV = experiment: Plaque reduction assay (PRA), VZV in HFFs; assay type: cell-based, varicella zoster virus; conditions: for antiviral activity by PRA: ACV-resistant VZV strains; for in vitro antiviral activity (concluding summary, words): VZV
Experimental: as §1, §2

CMV = experiment: Plaque reduction assay (PRA), CMV in HFFs; assay type: cell-based, cytomegalovirus; conditions: for antiviral activity by PRA: wild-type CMV isolate
Experimental: as §1, §2

Vero cells = experiment: MTS cell proliferation (cytotoxicity) assay on Vero cells; conditions: for therapeutic index (CC50/IC50): CC50 Vero cells, IC50 of the HSV-1 reference strain (H25); for toxicity (CC50) compared with ACV, GCV and FOS: Vero cells, MTS assay
Experimental: (§3) Human foreskin fibroblasts (HFFs) and African green monkey kidney cells (Vero) were grown in MEM supplemented with 10% fetal bovine serum. Cells were maintained at 37° C. in a humidified 5% CO2 atmosphere. Vero cells and HFFs were used for propagation of viral strains and susceptibility assays for HSV-1/HSV-2 and VZV/CMV, respectively. Clinical strains H25 (HSV-1), HSV22 (HSV-2) as well as laboratory strains KOS(HSV-1), Ellen (VZV) and AD169 (CMV) were used as wild-type susceptible reference isolates. Clinical strains C119629 (HSV-1), C114093 (HSV-1), C80249 (HSV-1), L920062 (HSV-1), MS2 (HSV-2), C75134 (HSV-2), W-940012 (HSV-2), C72984 (HSV-2), D-900180 (HSV-2), M-890546 (HSV-2), P-920056 (HSV-2) and GB2000VZV (VZV) as well as laboratory strains Xbaf (CMV) and VQA3 (CMV) were used as drug (ACV/GCV/FOS)— resistant isolates. All clinical strains starting with the letter C originated from the Quebec City clinical virology laboratory.
(§4) This assay is based on the use of solutions of a tetrazolium salt (3-(4,5-dimethylthiazol-2-yl)-5-(3-carboxymethoxyphenyl)-2-(4-sulphophenyl)-2H-tetrazolium, inner salt; MTS) and an electron coupling reagent (phenazine methosulfate; PMS). The tetrazolium salt is reduced by living cells to yield a formazan product that can be assayed colorimetrically. Briefly, HFFs and Vero cells were seeded in 96-well plates. After 24 h, media was aspirated and 100 μl of compounds diluted in MEM at concentrations up to 100 μM were added to wells in quaduplicate. After incubation at 37° C. for 3 days, 10 μl of a solution of MTS and PMS were added to each well. The plates were incubated at 37° C. for 2 h. The absorbance of the supernatant was read at a wavelength of 492 nm to measure cell viability compared to no-drug control wells. The drug concentration was plotted against the optical density of each sample and cellular toxicity (CC50) was calculated using GraphPad Prism version 5.0 (GraphPad Inc., La Jolla, Calif., USA).

[1] = test system: Human foreskin fibroblasts (HFFs); experiment: MTS cell proliferation (cytotoxicity) assay on HFFs; conditions: for toxicity (CC50) compared with ACV, GCV and FOS: HFFs, MTS assay
Experimental: as §3, §4

[2] = Parallel Artificial Membrane Permeability Assay (PAMPA); assay type: in vitro ADME; conditions: for Papp at 5 h: 5 h incubation, n=4, read-out: apparent permeability coefficient (Papp)
Experimental: Passive membrane permeability was determined using Parallel Artificial Membrane Permeability Assay (PAMPA). Initial concentrations of compounds 2 and 3 used for this assay were 37 and 2.5 respectively. Membrane area was 0.3 cm^2. After a 5 h incubation, fractions were taken on both sides of the membrane and compound concentrations were determined by LC-MS/MS. The apparent permeability coefficient (Papp) was calculated using the equation Papp=(dQ/dtAc0), where dQ/dt is the appearance rate of compound in the acceptor compartment, A is the surface area of the transwell membrane, and co is the initial concentration in the donor compartment.

[3] = Microsomal stability in rat liver microsomes; assay type: in vitro ADME; conditions: Sprague-Dawley; for half-life at 2 μM: rat liver microsomes 1 mg/ml, 2 μM compound, 37° C., NADPH, read-out: Half-life (t1/2); for CLint scaled at 2 μM: rat liver microsomes
Experimental: Sprague-Dawley rat liver microsomes (concentration 1 mg/ml) were incubated at 37° C. with 2 μM of compounds 2 or 3 in PBS containing 5 mM MgCl2 and 1 mM NADPH. The antihypertensive drug reserpine was used as a reference compound. Aliquots of 50 μl were withdrawn at different time intervals and placed in 96-well plates containing 50 μL of acetonitrile on ice. Samples were then mixed and centrifuged at 3000 rpm and 10 μL were injected in a liquid chromatography system (Agilent 1100 Binary Pumps). The aliquots from liquid chromatography were subjected to mass spectrometry analysis on SCIEX API4000 with TurboIonSpray ionization source to determine the remaining percentage of the parent compound. Intrinsic clearance (Clint) estimates were determined using the rate of parent compound disappearance. The slope (-k) was determined by linear regression analysis from the linear portion of the natural logarithm of the test compound concentration versus time plot. The […] (t1/2) was calculated according to k=ln 2/t1/2. The microsomal Clint can be derived from the equation Clint=kVfu (mL/min/mg protein) where fu is the unbound fraction and V is the volume of the incubation expressed in milliliters per mg of microsomal protein. As fu is not known for the tested compounds, the calculation was performed with fu=1 (V). The Clint was also extrapolated to the whole liver protein.

[4] = fu=1, read-out: intrinsic clearance (Clint) extrapolated to whole rat liver

In the case of “3-chloro-N-(2-{2-[(E)-2-(1-hydroxynaphthalen-2-yl)ethenyl]hydrazinyl}-2-oxoethyl)benzamide [Compound C3-2]”, the “antiviral activity by PRA” value (HSV-1) is reported as “not active”, the “antiviral activity by PRA” value (HSV-2) is reported as “not active” and the “antiviral activity by PRA” value (VZV) is reported as “not active”. The “antiviral activity by PRA” value (CMV) was “not active”.
For `O=C(CNC(=O)c1cccc2ccccc12)N/N=C/c1ccccc1O` [Compound 2, N-{2-[(2E)-2-(2-hydroxybenzylidene)hydrazinyl]-2-oxoethyl}naphthalene-1-carboxamide], the “IC50 value increases compared to the representative wild-type strains” value (HSV-1; ACV- and/or FOS-resistant HSV-1 strains, Vero cells) was 0.7 to 1.7 fold, the “in vitro antiviral activity (concluding summary, words)” value (“in vitro antiviral activity” below) (HSV-1) was “highly active” and the “factor by which less active than ACV (IC50)” value (HSV-1) was 2 to 3 fold. The “IC50 value increases compared to the representative wild-type strains” value (HSV-2; ACV- and/or FOS-resistant HSV-2 strains, Vero cells) was 0.7 to 1.7 fold, the “in vitro antiviral activity” value (HSV-2) was “highly active” and the “factor by which less active than ACV (IC50)” value (HSV-2) was 2 to 3 fold. The “in vitro antiviral activity” value (VZV) was “highly active”, the “factor by which less active than ACV (IC50)” value (VZV; representative wild-type VZV strain, PRA) was 2 to 3 fold and the “therapeutic index (CC50/IC50)” value (Vero cells) was 19.3. The “toxicity (CC50) compared with ACV, GCV and FOS” value (Vero cells) was “somewhat more toxic”, the “toxicity (CC50) compared with ACV, GCV and FOS” value [1] was “somewhat more toxic” and the permeability class [2] was “high (high (Papp>10))”. It also gave a Papp at 5 h [2] of 11.3 ± 1.17 ×10⁻⁶ cm/s, a half-life at 2 μM [3] of 33 min and a CLint scaled at 2 μM [3, 4] of 37 mL/min/kg.
With `C=CCc1cccc(/C=N/NC(=O)CNC(=O)c2cccc(Cl)c2)c1O` [Compound 3, 3-chloro-N-(2-{(2E)-2-[2-hydroxy-3-(prop-2-en-1-yl)benzylidene]hydrazinyl}-2-oxoethyl)benzamide] the “in vitro antiviral activity” value (CMV; CMV) was “highly active”, the “factor by which less active than GCV (IC50)” value (CMV; CMV reference strain, PRA) was 2 fold and the “IC50 value increases compared to the representative wild-type strain” value (CMV; GCV- and/or FOS-resistant CMV strains, HFF cells) was 1 to 2 fold. The “toxicity (CC50) compared with ACV, GCV and FOS” value (Vero cells) was “somewhat more toxic”, the “therapeutic index (CC50/IC50)” value ([1]; CC50 HFFs, IC50 of the CMV reference strain (AD169)) was 6.6 and the “toxicity (CC50) compared with ACV, GCV and FOS” value [1] was “somewhat more toxic”. For the same molecule, the permeability class [2] was “intermediate (intermediate (1<Papp<10))”, the Papp at 5 h [2] was 3.4 ± 0.45 ×10⁻⁶ cm/s and the half-life at 2 μM [3] was 22 min. It also gave a CLint scaled at 2 μM [3, 4] of 62 mL/min/kg.
With `COc1ccc(O)c(C=NNC(=O)CNC(=O)c2cccc3ccccc23)c1` [Compound 9, N-(2-(2-(2-hydroxy-5-methoxybenzylidene)hydrazino)-2-oxoethyl)-1-naphthamide] the “factor by which less active than ACV (IC50)” value (HSV-1) was 3 to 4 fold and the “factor by which less active than ACV (IC50)” value (HSV-2) was 3 to 4 fold.
With `O=C(CNC(=O)c1cccc2ccccc12)N/N=C/c1c(O)cccc1O` [Compound C2.05, N-{2-[(2E)-2-(2,6-dihydroxybenzylidene)hydrazinyl]-2-oxoethyl}naphthalene-1-carboxamide] the “antiviral activity by PRA” value (HSV-1) was “active against wild-type HSV-2 only”, the “antiviral activity by PRA” value (HSV-2) was “active” and the “antiviral activity by PRA” value (VZV) was “active against wild-type HSV-2 only”. The “antiviral activity by PRA” value (CMV) was “not active”.
With `O=C(CNC(=O)c1cccc2ccccc12)N/N=C/c1ncccc1O` [Compound C2.11, N-(2-{(2E)-2-[(3-hydroxypyridin-2-yl)methylidene)hydrazinyl}-2-oxoethyl)naphthalene-1-carboxamide] the “antiviral activity by PRA” value (HSV-1) was “not against HSV-1”, the “antiviral activity by PRA” value (HSV-2) was “active” and the “antiviral activity by PRA” value (VZV) was “active”. The “antiviral activity by PRA” value (CMV) was “not active”.
For `O=C(CNC(=O)c1cccc2ccccc12)N/N=C/c1ccc(F)cc1O` [Compound C2.20, N-{2-[(2E)-2-(4-fluoro-2-hydroxybenzylidene)hydrazinyl]-2-oxoethyl}naphthalene-1-carboxamide], the “in vitro antiviral activity” value (HSV-1) was “retained excellent activity”, the “antiviral activity by PRA” value (HSV-1) was “as active” and the “in vitro antiviral activity” value (HSV-2) was “retained excellent activity”. For the same molecule, the “antiviral activity by PRA” value (HSV-2) was “as active”, the “antiviral activity by PRA” value (VZV) was “as active” and the “in vitro antiviral activity” value (VZV) was “retained excellent activity”. The “antiviral activity by PRA” value (CMV) was “not active” and the “therapeutic index (CC50/IC50)” value (Vero cells) was 9.6.
With `Cc1cccc(/C=C/NNC(=O)CNC(=O)c2cccc(Cl)c2)c1O` [Compound C3-1, 3-chloro-N-(2-{2-[(E)-2-(2-hydroxy-3-methylphenyl)ethenyl]hydrazinyl}-2-oxoethyl)benzamide] the “antiviral activity by PRA” value (HSV-1) was “not active”, the “antiviral activity by PRA” value (HSV-2) was “not active” and the “antiviral activity by PRA” value (VZV) was “not active”. The “antiviral activity by PRA” value (CMV) was “not active”.
Molecule `COC(=O)[C@H]1[C@H]2C[C@@H]3c4[nH]c5cc(OC)ccc5c4CCN3C[C@H]2C[C@@H](OC(=O)c2cc(OC)c(OC)c(OC)c2)[C@@H]1OC` [reserpine, reference compound] has a half-life at 2 μM [3] of 43 min and a CLint scaled at 2 μM ([3]; reference compound, read-out: intrinsic clearance (Clint)) of 28 mL/min/kg.
